Test results: patent publication US20060116423A1, “Methods and compositions for treatment of central nervous system injury with isothiocyanates” (priority 2004, published 2006)

Assays:
blood-brain barrier = assay: Blood-brain barrier integrity by Evan's blue dye extravasation after cortical impact injury; assay type: in vivo, rat; conditions: for blood-brain barrier permeability (Evans Blue extravasation): measured 24 h after TBI, vs vehicle
Experimental: Blood-brain barrier integrity was assessed using extravagation of Evan's blue (EB) dye. When injected through the jugular vein of normal animals, EB is not detected in the nervous tissue. However, if the blood-brain barrier is compromised, EB can be detected in nervous tissues. The amount of EB can be quantified by extracting the dye from the tissue followed by spectrophotometric analysis at 610 nm wavelength. One and one-half hours prior to the above time points, animals were anesthetized and injected with 3% EB in saline (4 ml/kg) through the jugular vein. Animals were transcardially perfused with phosphate-buffered saline (PBS) until the out-coming liquid was clear followed by 4% paraformaldehyde (400 ml). The brain was removed and 2 mm-thick sections were prepared and incubated with 3 ml of 99.5% formamide in a 60° C. water bath for 24 hr. At the end of the incubation, tissues were removed and the formamide solution was centrifuged in an Eppendorf centrifuge at 12,000 rpm for 20 min. The supernatant solution was collected and the optical density at 610 nm was measured to determine the relative amount of EB dye in each sample.

AQP4 mRNA = conditions: 5 mg/kg i.p.; 24 hr post-administration; cortical tissue; vehicle 100.00±18.16%; mean±S.E.M., n=3; P<0.05
Experimental: Animals were killed and parietal cortical tissues were quickly dissected out and frozen in dry ice. The frozen tissue was homogenized in 1.5ml of TriZol (Invitrogen) per 100 mg tissue, followed by addition of chloroform (1:5) and incubation on ice for 20 min. The homogenate was centrifuged at 14,000×g for 30 min, and total RNA was precipitated by isopropanol. 1.0 jig total RNA was reverse transcribed for 2 hours at 37° C. in a 20μl mixture containing 50 mM Tris-HCl pH 8.3, 75 mM KCl, 3.0 mM MgCl2, 10 mM DTT, 2.5 μM random hexamer, 1.0 mM each dNTP, 20 U RNasin, and 200 U Superscript II reverse transcriptase. The level of expression of each target gene was quantified using a BioRad iCycler real-time PCR system (BioRad, Hercules, CA). Reactions were carried out in triplicate. Each 30 μl reaction mixture consisted of 1.5 μl of the cDNA and 18 mM Tris-HCl pH 8.3, 55 mM KCl, 2.0 mM MgCl2, 0.2 mM of each dNTP, 0.5μM of each primer, 10 nM fluorescein, 1:75,000 dilution of Sybr green I, and 2 U AmpliTaq DNA polymerase. […] The resultant data was analyzed using the iCycler iQ Real-Time Detection System software^33.
To assess the ability of SUL to induce AQP4 expression, rats were intraperitonealy injected with either 5 mg/kg SUL prepared in corn oil or equal volume of vehicle. […] AQP4 mRNA levels were evaluated using real-time PCR. […]

cortical cultures = conditions: pretreatment prior to hydrogen peroxide or glutamate exposure; in vitro; cited from earlier work
[1] = test system: glial fibrilary acidic protein (GFAP); conditions: 24 hr after injury; vehicle vs SUL-treated animals
Source text: (§1) This model utilizes a pneumatic piston to deform a controllable volume of exposed cortex over a range of impact velocities. All protocols were in compliance with NIH's Guide for the Care and Use of Laboratory Animals and approved by the Institutional Animal Care and Use Committee. A controlled cortical impact device was used to cause brain trauma as previously described^6,7,26. Rats were anesthetized using 5% isoflurane with a 1:1 N2O:O2 mixture. The animals were then maintained with a 2% isoflurane/2:1 N2O:O2 mixture, via a face mask. Animals were mounted in the injury device stereotaxic frame secured by ear bars and an incisor bar. The head was held in a horizontal plane with respect to the interaural line. A midline incision was made, the soft tissues reflected, and bilateral 6 mm craniectomies were made midway between the bregma and lambda with the medial edge of each craniectomy 1 mm lateral to midline. Rats received a single impact at 1.8 mm deformation with an impact velocity of 6 m/sec at an angle of 20° from the vertical plane. Core body temperature was maintained at 37-38° C. by use of a rectal thermometer coupled to a heating pad. Sham rats were anesthetized and received craniectomies but were not cortically impacted. After injury or sham operation, the scalp was sutured and the animal placed in an oxygenated chamber and monitored during recovery. All rats were allowed to completely recover from the anesthesia after the surgery in a warm chamber before being sent back to the home cages. The type of brain trauma employed in this study produces both motor and cognitive deficits similar to those seen in human patients^6.
(§2) Rats were killed and brains were removed quickly and dip-frozen in −80° C. isopentane for 20 sec.

[2] = test system: rat endothelial cell antigen (RECA); conditions: 5 mg/kg and 20 mg/kg i.p. at 6 h after injury; samples at 24 h; cortices ipsilateral to injury; P<0.05 vs vehicle
Source text: as §1, §2

aquaporin-4 (AQP4) = test system: aquaporin-4 (AQP4)
Source text: as §1, §2

[3] = test system: tight junction proteins (claudin-5, occludin, ZO-1); conditions: administration six hours after injury; P<0.05 vs injury+vehicle
Source text: as §1, §2

[4] = test system: endothelial barrier antigen (EBA); conditions: 5 mg/kg and 20 mg/kg i.p. at 6 h after injury; samples at 24 h; cortices ipsilateral to injury; P<0.05 vs vehicle
Source text: as §1, §2

[5] = test system: von-Willebrand factor (vWF); conditions: administration six hours after injury; vs injury+vehicle
Source text: as §1, §2

brain injured rats [6] = test system: brain injured rats
Source text: as §1

brain swelling (edema) = conditions: P<0.05 vs vehicle
Source text: as §1

brain injured rats [7] = conditions: 5 mg/kg i.p. 6 hr post-injury, P<0.05 vs vehicle
Source text: as §1, with “All rats were allowed to completely recover from the anesthesia after the surgery in a warm chamber before being sent back to the home cages. The type of brain trauma employed in this study produces both motor and cognitive deficits similar to those seen in human patients^6.” left out

[8] = test system: focal cerebral ischemia (CCA/MCA occlusion); conditions: 5 mg/kg i.p. 15 minutes after onset of ischemia; 3 hours CCA/MCA occlusion; three days following ischemia; vehicle 153.87±11.01 mm^3; P<0.05
Experimental: Focal ischemia was induced by temporary left common carotid/middle cerebral artery (CCA/MCA) occlusion^1,41. Briefly, rats were anesthetized with chloral hydrate (0.45 g/kg IP). Core body temperature was maintained at 36.5±0.5° C. during ischemia The ipsilateral CCA was isolated and tagged through a ventral, cervical midline incision. A 0.005-inch-diameter stainless steel wire (Small Parts Inc) was placed underneath the left MCA rostral to the rhinal fissure, proximal to the major bifurcation of the MCA, and distal to the lenticulostriate arteries. The artery was then lifted, and the wire was rotated clockwise to ensure occlusion. The CCA was next occluded with an atraumatic aneurysm clip. Cerebral perfusion at the cortical surface, 3 mm distal to the locus of the MCA occlusion, was measured with a laser-Doppler flowmeter (LDF) (model BPM2, Vesamedic). […] After 180 minutes of MCA/CCA occlusion, reperfusion was established by reversing the occlusion procedure. […]
Morphometric determination of infarct volume was obtained with the help of a computer-based image analyzer operated by Brain software (Drexel University). […] The infarct volume (mm^3) was calculated from the difference between the volume of contralateral cortex and the volume of the TTC-stained (nonischemic) portion of ipsilateral cortex of each rat. […]

Q: Which “blood-brain barrier permeability (Evans Blue extravasation)” value (“blood-brain barrier permeability” for short) (blood-brain barrier; 2.8 mg/kg i.p. 6 hr after brain trauma) does the source give for `C=CCN=C=S` [allyl isothiocyanate] here?
A: The value was “decreased blood-brain barrier permeability”.

Q: For `S=C=NCCc1ccccc1` [phenylethyl isothiocyanate], which “blood-brain barrier permeability” value (blood-brain barrier; 4.6 mg/kg i.p. 6 hr after brain trauma) is on record?
A: The value was “decreased blood-brain barrier permeability”.

Q: For `C[S@@+]([O-])CCCCN=C=S` [sulforaphane], which “AQP4 mRNA level” value (AQP4 mRNA) is on record?
A: The value was 289.76±16.52%.

Q: What about the “neuroprotection of cortical cultures” value (cortical cultures) of the same compound?
A: The value was “robust neuroprotection”.

Q: And the “GFAP immunoreactivity in the penumbra region” value [1]?
A: Its value is “lack of difference”.

Q: And the “RECA staining, integrated fluorescent intensity” value [2]?
A: The value was “significantly improves”.

Q: What about the “AQP4 immuno-fluorescence intensity in the injury core” value (aquaporin-4 (AQP4); 5 mg/kg i.p. at 6 hr after injury, 24 hr after injury, mean±S.E.M., n=4, injury-vehicle 13.79±2.22%, P<0.05) of the same compound?
A: The value was 35.25±3.13%.

Q: What about the “AQP4 levels (fluorescence intensity) in the penumbra region” value (aquaporin-4 (AQP4); post-injury administration, at both 24 hr and 3 days following injury, P<0.05 vs vehicle) of the same compound?
A: Its value is “significantly increased”.

Q: And the “tight junction protein levels (claudin-5, occludin, ZO-1 immunoreactivity)” value [3]?
A: The value was “significantly attenuated the loss”.

Q: What about the “EBA staining, integrated fluorescent intensity” value [4] of the same compound?
A: The value was “significantly improves”.

Q: And the “vWF levels (immunoreactivity)” value [5]?
A: Its value is “partially restored”.

Q: And the “spatial learning and memory (latency to find the hidden platform)” value (brain injured rats [6]; 5 mg/kg 6 hr post-injury, days 14-18 post-injury, n=9, P<0.05 vs vehicle)?
A: The value was “improved spatial learning and memory”.

Q: And the “working memory: latency to hidden platform, match trial vs location trial” value (brain injured rats [6]; 5mg/kg i.p. 6 hr post-injury, tested day 21 post-injury, n=8, P<0.05)?
A: The value was “find the hidden platform significantly faster during the match trial”.

Q: What about the “difference in brain water content between injured and uninjured hemispheres” value (brain swelling (edema); 5 mg/kg ip at 15 min and at 6 hr after injury, measured at 3 day following injury) of the same compound?
A: The value was “significantly decreases the difference in brain water content”.

Q: What about the “brain water content (difference in percent water content between injured and uninjured hemispheres)” value (brain swelling (edema); 5 mg/kg ip at 15 min and at 6 hr following injury, measured 24 hr following injury) of the same compound?
A: Its value is “decreases brain water content”.

Q: What about the “increase in brain water content (difference between injured and uninjured hemispheres)” value (brain swelling (edema); delayed administration, 5 mg/kg ip at 6 hr after injury, measured at 3 days after injury) of the same compound?
A: Its value is “significantly reduces the increase in brain water content”.

Q: What about the “extinction of fear memory (freezing during extinction training)” value (brain injured rats [7]; extinction on day 23 post-injury, n=8) of the same compound?
A: The value was “Extinction was more rapid”.

Q: What about the “memory for the extinction event (freezing to the tone)” value (brain injured rats [7]; tested 48 hr following extinction training, 3 tone presentations) of the same compound?
A: Its value is “reduced freezing to the tone”.

Q: And the total infarct volume [8]?
A: The total infarct volume was 100.52±16.35 mm^3.

Q: And the “blood-brain barrier permeability” value (blood-brain barrier; 5 mg/kg i.p. 6 hr after brain trauma)?
A: The value was “decreased blood-brain barrier permeability”.

Q: And the “Evan's blue dye extravasation into brain tissue (OD at 610 nm)” value (blood-brain barrier; 5 mg/kg i.p. at 6 h after TBI, 24 hr and 72 hr time points, ipsilateral side, P<0.05 vs vehicle)?
A: Its value is “significantly attenuate dye extravasation”.

Q: What about the “extravasation of Evan's Blue dye” value (blood-brain barrier; oral 60 mg/kg/day for one or four days, day one given 6 hr following brain injury, P<0.05 vs vehicle) of the same compound?
A: Its value is “effective in decreasing the extravasation of Evan's Blue dye”.
